Results taken from PMC11161652, “ASXLs binding to the PHD2/3 fingers of MLL4 provides a mechanism for the recruitment of BAP1 to active enhancers” (Nature Communications, 2024).
Ends that are not written are not given here.

What was measured:
MLL4PHD2/3 K274E = target: T1, MLL4PHD2/3 K274E (Homo sapiens, UniProt O14686, K274E); assay: NMR titration binding, K274E MLL4PHD2/3; details: 1H,15N HSQC titration, 0.1 mM protein, 20 mM Tris pH 6.8, 150 mM NaCl, 298 K
T1 construct: MLL4 (aa 227-324); GST (N, cleaved yes); made in house; host or cells: E. coli BL21-CodonPlus
Procedure: (§1) All constructs were expressed in BL21-CodonPlus competent cells.
(§2) For NMR titration experiments, ^1H,^15N HSQC spectra of 0.1 mM uniformly ^15N-labeled WT or mutated MLL4PHD2/3, MLL3PHD2/3 or MLL3PHD4 were recorded while WT or mutated ASXL2 (aa 650-670, 650-664, 656-670) and ASXL3 (aa 1047-1067) peptides (synthesized by SynPeptide) or MLL3PHD2/3 were added stepwise. All experiments were carried out in 20 mM Tris buffer (pH 6.8), 150 mM NaCl, and 3 mM DTT, containing 7% D2O. The dissociation constants (Kds) were determined by a nonlinear least-squares analysis in GraphPad Prism using the equation:1 △δ=△δmaxL+P+Kd−L+P+Kd^2−4PL/2P where [L] is concentration of the peptide, [P] is concentration of the protein, Δδ is the observed chemical shift change, and Δδmax is the normalized chemical shift change at saturation. Normalized chemical shift changes were calculated using the equation Δδ=△δH^2+△sn/5^2 (2), where Δδ is the change in chemical shift in parts per million (ppm).

MLL3PHD2/3 D372K/D400K = target: T2, MLL3PHD2/3 D372K/D400K (Homo sapiens, UniProt Q8NEZ4, D372K/D400K); assay: NMR titration binding, D372K/D400K MLL3PHD2/3; details: 1H,15N HSQC titration, 0.1 mM protein, 20 mM Tris pH 6.8, 150 mM NaCl, 298 K
T2 construct: human MLL3 (aa 342-439); GST (N, cleaved yes); made in house; host or cells: E. coli BL21-CodonPlus
Procedure: as §1, §2

MLL4PHD2/3 L256K = target: T3, MLL4PHD2/3 L256K (Homo sapiens, UniProt O14686, L256K); assay: NMR titration binding, L256K MLL4PHD2/3; details: 1H,15N HSQC, 0.1 mM protein, 20 mM Tris pH 6.8, 298 K
T3 construct: MLL4 (aa 227-324); GST (N, cleaved yes); made in house; host or cells: E. coli BL21-CodonPlus
Procedure: as §1, §2

MLL4PHD2/3 D285K = target: T4, MLL4PHD2/3 D285K (Homo sapiens, UniProt O14686, D285K); assay: NMR titration binding, D285K MLL4PHD2/3; details: 1H,15N HSQC titration, 0.1 mM protein, 20 mM Tris pH 6.8, 150 mM NaCl, 3 mM DTT, 7% D2O, 298 K, mean ± SD, n = 3
T4 construct: MLL4 (aa 227-324); GST (N, cleaved yes); made in house; host or cells: E. coli BL21-CodonPlus
Procedure: as §1
Normalized chemical shift changes were calculated using the equation Δδ=△δH^2+△sn/5^2 (2), where Δδ is the change in chemical shift in parts per million (ppm).

MLL4PHD2/3 D257K/D285K = target: T5, MLL4PHD2/3 D257K/D285K (Homo sapiens, UniProt O14686, D257K/D285K); assay: NMR titration binding, D257K/D285K MLL4PHD2/3; details: 1H,15N HSQC titration, 0.1 mM protein, 20 mM Tris pH 6.8, 150 mM NaCl, 298 K
T5 construct: MLL4 (aa 227-324); GST (N, cleaved yes); made in house; host or cells: E. coli BL21-CodonPlus
Procedure: as §1, §2

MLL4PHD2/3 V290K = target: T6, MLL4PHD2/3 V290K (Homo sapiens, UniProt O14686, V290K); assay: NMR titration binding, V290K MLL4PHD2/3; details: 1H,15N HSQC titration, 0.1 mM protein, 20 mM Tris pH 6.8, 150 mM NaCl, 298 K
T6 construct: MLL4 (aa 227-324); GST (N, cleaved yes); made in house; host or cells: E. coli BL21-CodonPlus
Procedure: as §1, §2

T1 sequence (O14686 227-324 K274E): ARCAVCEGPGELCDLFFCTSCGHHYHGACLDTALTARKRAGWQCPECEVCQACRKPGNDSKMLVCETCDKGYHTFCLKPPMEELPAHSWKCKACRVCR
T2 sequence (Q8NEZ4 342-439 D372K/D400K): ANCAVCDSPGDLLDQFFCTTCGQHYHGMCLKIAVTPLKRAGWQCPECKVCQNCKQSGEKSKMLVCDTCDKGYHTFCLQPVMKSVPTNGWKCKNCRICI
T3 sequence (O14686 227-324 L256K): as the sequence (O14686 227-324 K274E) above, with L30K, E48K counted along it
T4 sequence (O14686 227-324 D285K): as the sequence (O14686 227-324 K274E) above, with E48K, D59K counted along it
T5 sequence (O14686 227-324 D257K/D285K): as the sequence (O14686 227-324 K274E) above, with D31K, E48K, D59K counted along it
T6 sequence (O14686 227-324 V290K): as the sequence (O14686 227-324 K274E) above, with E48K, V64K counted along it

- Kd (MLL4PHD2/3 K274E): no binding
- Kd (MLL3PHD2/3 D372K/D400K): no binding
- Kd (MLL4PHD2/3 L256K): unfolded
- Kd (MLL4PHD2/3 D285K): 1700 µM
- Kd (MLL4PHD2/3 D257K/D285K): no binding
- Kd (MLL4PHD2/3 V290K): no binding
Sequence: NRTGARTLADIKAKAQLVKAQ [ASXL2 650-670]
